In general, Ki refers to a dissociation constant, usually derived from enzyme kinetics or from competition with a known ligand.

The target in this assay is T1, GST-tagged-Wee1 kinase (Homo sapiens, UniProt P30291).
T1 construct: purchased Carnabio (Carna Biosciences) 05-177
T1 sequence (P30291 whole entry): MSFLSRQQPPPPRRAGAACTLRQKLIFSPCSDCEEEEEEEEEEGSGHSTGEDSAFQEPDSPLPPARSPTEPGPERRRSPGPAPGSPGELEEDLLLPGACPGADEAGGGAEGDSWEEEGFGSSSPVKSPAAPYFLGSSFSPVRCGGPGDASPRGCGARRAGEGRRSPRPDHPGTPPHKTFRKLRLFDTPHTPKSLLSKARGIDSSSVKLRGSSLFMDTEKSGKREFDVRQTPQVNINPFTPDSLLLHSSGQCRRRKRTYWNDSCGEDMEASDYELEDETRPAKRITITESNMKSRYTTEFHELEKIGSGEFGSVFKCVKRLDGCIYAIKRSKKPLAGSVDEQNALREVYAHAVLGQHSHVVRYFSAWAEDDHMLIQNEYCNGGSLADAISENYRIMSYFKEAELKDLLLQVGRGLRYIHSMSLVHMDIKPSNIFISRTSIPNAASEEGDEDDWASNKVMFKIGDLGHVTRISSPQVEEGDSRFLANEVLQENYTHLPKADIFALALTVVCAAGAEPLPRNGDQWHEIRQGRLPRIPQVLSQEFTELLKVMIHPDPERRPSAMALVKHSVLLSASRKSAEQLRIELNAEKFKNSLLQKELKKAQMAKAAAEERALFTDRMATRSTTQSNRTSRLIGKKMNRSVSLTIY
Put plainly: Wee1 time-resolved fluorescence equilibrium binding assay (displacement of Oregon Green-labeled ATP-competitive kinase probe). Conditions: read-out: Wee-1 inhibition (Ki). The essentials: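 Ki values derive from competitive displacement, under equilibrium, of a fast-reversible ATP-site Oregon Green kinase probe from GST-tagged Wee1, detected by time-resolved fluorescence.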
`O=c1c2cnc(Nc3ccc(N4CCOCC4)cc3)nc2n2ccnc2n1-c1ccccc1Cl` [Example 10, 6-(2-chlorophenyl)-2-{[4-(morpholin-4-yl)phenyl]amino}imidazo[1,2-a]pyrimido[5,4-e]pyrimidin-5(6H)-one]: the Ki is under 10 nM.
On to `CS(=O)(=O)N1CC2(CN(c3ccc(Nc4ncc5c(=O)n(-c6c(Cl)cccc6Cl)c6nccn6c5n4)cc3)C2)C1` [Example 303, 6-(2,6-dichlorophenyl)-2-({4-[6-(methylsulfonyl)-2,6-diazaspiro[3.3]hept-2-yl]phenyl}amino)imidazo[1,2-a]pyrimido[5,4-e]pyrimidin-5(6H)-one], for which the Ki is under 10 nM.
Consider `CN1CCN(c2ccc(Nc3ncc4c(=O)n(-c5ccccc5Cl)c5nccn5c4n3)cc2)CC1` [Example 1, 6-(2-chlorophenyl)-2-{[4-(4-methylpiperazin-1-yl)phenyl]amino}imidazo[1,2-a]pyrimido[5,4-e]pyrimidin-5(6H)-one], for which the Ki is under 10 nM.
As to `CN1CCN(c2ccc(Nc3ncc4c(=O)n(-c5c(Cl)cccc5Cl)c5nccn5c4n3)cc2)CC1` [Example 55, 6-(2,6-dichlorophenyl)-2-{[4-(4-methylpiperazin-1-yl)phenyl]amino}imidazo[1,2-a]pyrimido[5,4-e]pyrimidin-5(6H)-one], the Ki was under 10 nM.
As to `CN1CCN(c2ccc(Nc3ncc4c(=O)n(-c5ccccc5)c5nccn5c4n3)cc2)CC1` [Example 39, 2-{[4-(4-methylpiperazin-1-yl)phenyl]amino}-6-phenylimidazo[1,2-a]pyrimido[5,4-e]pyrimidin-5(6H)-one], the Ki lay in the range of 10 to 100 nM.
As to `Cc1cc(Nc2ncc3c(=O)n(-c4c(Cl)cccc4Cl)c4nccn4c3n2)ccc1N1CCCN(C)CC1` [Example 74, 6-(2,6-dichlorophenyl)-2-{[3-methyl-4-(4-methyl-1,4-diazepan-1-yl)phenyl]amino}imidazo[1,2-a]pyrimido[5,4-e]pyrimidin-5(6H)-one], the inhibitory constant (Ki) is under 10 nM.
`O=c1c2cnc(Nc3ccccc3)nc2n2ccnc2n1-c1cccc(O)c1` [Example 68, 6-(3-hydroxyphenyl)-2-(phenylamino)imidazo[1,2-a]pyrimido[5,4-e]pyrimidin-5(6H)-one]: the Ki was in the range of 10 to 100 nM.
For `CC(C)[C@H]1CN(c2ccc(Nc3ncc4c(=O)n(-c5c(Cl)cccc5Cl)c5nccn5c4n3)cc2)CCN1` [Example 195, 6-(2,6-dichlorophenyl)-2-({4-[(3S)-3-(propan-2-yl)piperazin-1-yl]phenyl}amino)imidazo[1,2-a]pyrimido[5,4-e]pyrimidin-5(6H)-one], the Ki is under 10 nM.
In the case of `O=c1c2cnc(Nc3ccc(N4CCCC(F)(F)C4)cc3)nc2n2ccnc2n1-c1c(Cl)cccc1Cl` [Example 154, 6-(2,6-dichlorophenyl)-2-{[4-(3,3-difluoropiperidin-1-yl)phenyl]amino}imidazo[1,2-a]pyrimido[5,4-e]pyrimidin-5(6H)-one] it was under 10 nM; in that of `CN1Cc2cc(Nc3ncc4c(=O)n(-c5c(F)cccc5Cl)c5nccn5c4n3)ccc2C1(C)C` [Example 209, 6-(2-chloro-6-fluorophenyl)-2-[(1,1,2-trimethyl-2,3-dihydro-1H-isoindol-5-yl)amino]imidazo[1,2-a]pyrimido[5,4-e]pyrimidin-5(6H)-one], under 10 nM.
Take `CN1Cc2cc(Nc3ncc4c(=O)n(-c5c(F)cc(F)cc5Cl)c5nccn5c4n3)ccc2C(C)(C)C1` [Example 187, 6-(2-chloro-4,6-difluorophenyl)-2-[(2,4,4-trimethyl-1,2,3,4-tetrahydroisoquinolin-7-yl)amino]imidazo[1,2-a]pyrimido[5,4-e]pyrimidin-5(6H)-one]: the Ki was under 10 nM.
Turning to `CN1C(C)(C)c2ccc(Nc3ncc4c(=O)n(-c5c(F)cccc5Cl)c5nccn5c4n3)cc2C1(C)C` [Example 210, 6-(2-chloro-6-fluorophenyl)-2-[(1,1,2,3,3-pentamethyl-2,3-dihydro-1H-isoindol-5-yl)amino]imidazo[1,2-a]pyrimido[5,4-e]pyrimidin-5(6H)-one], the Ki is under 10 nM.
In the case of `O=c1c2cnc(Nc3ccc4c(c3)CN(CCF)CC43CC3)nc2n2ccnc2n1-c1c(F)cccc1Cl` [Example 225, 6-(2-chloro-6-fluorophenyl)-2-{[2′-(2-fluoroethyl)-2′,3′-dihydro-1′H-spiro[cyclopropane-1,4′-isoquinolin]-7′-yl]amino}imidazo[1,2-a]pyrimido[5,4-e]pyrimidin-5(6H)-one] it was under 10 nM; in that of `Cc1ccccc1-n1c(=O)c2cnc(Nc3ccc(N4CCN(C)CC4)cc3)nc2n2ccnc12` [Example 14, 6-(2-methylphenyl)-2-{[4-(4-methylpiperazin-1-yl)phenyl]amino}imidazo[1,2-a]pyrimido[5,4-e]pyrimidin-5(6H)-one], under 10 nM.
As for `CN(C)C1CCN(c2ccc(Nc3ncc4c(=O)n(-c5c(Cl)cccc5Cl)c5nccn5c4n3)cc2)CC1` [Example 215, 6-(2,6-dichlorophenyl)-2-({4-[4-(dimethylamino)piperidin-1-yl]phenyl}amino)imidazo[1,2-a]pyrimido[5,4-e]pyrimidin-5(6H)-one], the Ki was under 10 nM.
For `CN(C)C1CCN(c2ccc(Nc3ncc4c(=O)n(-c5c(F)cccc5Cl)c5nccn5c4n3)cc2)CC1` [Example 255, 6-(2-chloro-6-fluorophenyl)-2-({4-[4-(dimethylamino)piperidin-1-yl]phenyl}amino)imidazo[1,2-a]pyrimido[5,4-e]pyrimidin-5(6H)-one], the inhibitory constant (Ki) was under 10 nM.
`CC(C)CC(N(C)C)C1(c2ccc(Nc3ncc4c(=O)n(-c5c(Cl)cccc5Cl)c5nccn5c4n3)cc2)CCC1` (stereo not drawn) [Example 196]: the Ki was under 10 nM.
With `CC1SC(c2ccc(Nc3ncc4c(=O)n(-c5ccccc5Cl)c5nccn5c4n3)cc2)NC1=O` (stereo not drawn) [Example 221, 6-(2-chlorophenyl)-2-{[4-(5-methyl-4-oxo-1,3-thiazolidin-2-yl)phenyl]amino}imidazo[1,2-a]pyrimido[5,4-e]pyrimidin-5(6H)-one], the Ki lay in the range of 10 to 100 nM.
As to `COC[C@H]1CCCN1c1ccc(Nc2ncc3c(=O)n(-c4ccccc4Cl)c4nccn4c3n2)cc1` [Example 251, 6-(2-chlorophenyl)-2-({4-[(2R)-2-(methoxymethyl)pyrrolidin-1-yl]phenyl}amino)imidazo[1,2-a]pyrimido[5,4-e]pyrimidin-5(6H)-one], the Ki is under 10 nM.
For the compound `O=c1c2cnc(Nc3ccc(-c4ccc5cccnc5n4)cc3)nc2n2ccnc2n1-c1ccccc1Cl` [Example 351, 6-(2-chlorophenyl)-2-{[4-(1,8-naphthyridin-2-yl)phenyl]amino}imidazo[1,2-a]pyrimido[5,4-e]pyrimidin-5(6H)-one], the Ki lay in the range of 10 to 100 nM.
`CC(=O)N1CCN(c2ccc(Nc3ncc4c(=O)n(-c5ccccc5Cl)c5nccn5c4n3)cc2)CC1` [Example 13, 2-{[4-(4-acetylpiperazin-1-yl)phenyl]amino}-6-(2-chlorophenyl)imidazo[1,2-a]pyrimido[5,4-e]pyrimidin-5(6H)-one]: the Ki is under 10 nM.
Turning to `CC(=O)N1CCN(c2ccc(Nc3ncc4c(=O)n(-c5c(F)cccc5Cl)c5nccn5c4n3)cc2)CC1` [Example 158, 2-{[4-(4-acetylpiperazin-1-yl)phenyl]amino}-6-(2-chloro-6-fluorophenyl)imidazo[1,2-a]pyrimido[5,4-e]pyrimidin-5(6H)-one], the Ki is under 10 nM.
With `CN(C)CCCN(C)c1ccc(Nc2ncc3c(=O)n(-c4ccccc4Cl)c4nccn4c3n2)cc1` [Example 261, 6-(2-chlorophenyl)-2-[(4-{[3-(dimethylamino)propyl](methyl)amino}phenyl)amino]imidazo[1,2-a]pyrimido[5,4-e]pyrimidin-5(6H)-one], the Ki is under 10 nM.
On to `O=c1c2cnc(Nc3ccc(N4CCC(O)CC4)cc3)nc2n2ccnc2n1-c1c(Cl)cccc1Cl` [Example 166, 6-(2,6-dichlorophenyl)-2-{[4-(4-hydroxypiperidin-1-yl)phenyl]amino}imidazo[1,2-a]pyrimido[5,4-e]pyrimidin-5(6H)-one], for which the Ki is under 10 nM.
For the compound `CC(=O)N1Cc2cc(Nc3ncc4c(=O)n(-c5c(F)cccc5Cl)c5nccn5c4n3)ccc2C(C)(C)C1` [Example 310, 2-[(2-acetyl-4,4-dimethyl-1,2,3,4-tetrahydroisoquinolin-7-yl)amino]-6-(2-chloro-6-fluorophenyl)imidazo[1,2-a]pyrimido[5,4-e]pyrimidin-5(6H)-one], the Ki is under 10 nM.
For `CN1CCN(CCCOc2cccc(Nc3ncc4c(=O)n(-c5ccccc5Cl)c5nccn5c4n3)c2)CC1` [Example 82, 6-(2-chlorophenyl)-2-({3-[3-(4-methylpiperazin-1-yl)propoxy]phenyl}amino)imidazo[1,2-a]pyrimido[5,4-e]pyrimidin-5(6H)-one] the value was 10 to 100 nM.
For `CCN1Cc2cc(Nc3ncc4c(=O)n(-c5ccccc5Cl)c5nccn5c4n3)ccc2C(C)(C)C1` [Example 161, 6-(2-chlorophenyl)-2-[(2-ethyl-4,4-dimethyl-1,2,3,4-tetrahydroisoquinolin-7-yl)amino]imidazo[1,2-a]pyrimido[5,4-e]pyrimidin-5(6H)-one], the Ki is under 10 nM.
Consider `CC(=O)N1CCc2ccc(Nc3ncc4c(=O)n(-c5c(Cl)cccc5Cl)c5nccn5c4n3)cc2C1` [Example 329, 2-[(2-acetyl-1,2,3,4-tetrahydroisoquinolin-7-yl)amino]-6-(2,6-dichlorophenyl)imidazo[1,2-a]pyrimido[5,4-e]pyrimidin-5(6H)-one], for which the Ki is under 10 nM.
On to `O=c1c2cnc(Nc3ccc(Cn4cccn4)cc3)nc2n2ccnc2n1-c1ccccc1Cl` [Example 88, 6-(2-chlorophenyl)-2-{[4-(1H-pyrazol-1-ylmethyl)phenyl]amino}imidazo[1,2-a]pyrimido[5,4-e]pyrimidin-5(6H)-one], for which the Ki was under 10 nM.
For `O=c1c2cnc(Nc3ccc(N4CCNCC4)c(C(F)(F)F)c3)nc2n2ccnc2n1-c1ccccc1Cl` [Example 75, 6-(2-chlorophenyl)-2-{[4-(piperazin-1-yl)-3-(trifluoromethyl)phenyl]amino}imidazo[1,2-a]pyrimido[5,4-e]pyrimidin-5(6H)-one], the Ki is under 10 nM.

The values above are taken from US8710065B2, “Tricyclic inhibitors of kinases” (AbbVie Inc., priority 2011, dated 2014).
